We go through 27 compounds from PubChem BioAssay AID330 (DTP/NCI, 2004).

This assay has as its system P388 leukemia ip, CD2F1 mice, survival T/C. The experiment in a line: NCI In Vivo Anticancer Drug Screen. Data for tumor model P388 Leukemia (intraperitoneal) in CD2F1 (CDF1) mice. Particulars: endpoint: median survival time, higher = longer survival. An outline of the steps:
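Mice carrying the transplanted tumor received test compound or vehicle. Survival was recorded in each group, and the value is the treated-group measurement divided by that of the vehicle-treated control group.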

The mark [1] stands for this setting: dose: 60.0 mg/kg/injection, schedule: Q01DX005 (ip), vehicle: Klucel (hydroxypropylcellulose) (HPC).
Where [2] appears, read: dose: 120.0 mg/kg/injection, schedule: Q01DX005 (ip), vehicle: Klucel (hydroxypropylcellulose) (HPC).
Where [3] appears, read: dose: 240.0 mg/kg/injection, schedule: Q01DX005 (ip), vehicle: Klucel (hydroxypropylcellulose) (HPC).
Where [4] appears, read: dose: 50.0 mg/kg/injection, schedule: Q01DX005 (ip), vehicle: saline with Tween-80.
Where [5] appears, read: dose: 100.0 mg/kg/injection, schedule: Q01DX005 (ip), vehicle: saline with Tween-80.
Where [6] appears, read: dose: 200.0 mg/kg/injection, schedule: Q01DX005 (ip), vehicle: saline with Tween-80.
Where [7] appears, read: dose: 60.0 mg/kg/injection, schedule: Q01DX005 (ip), vehicle: saline with Tween-80.
The mark [8] stands for this setting: dose: 120.0 mg/kg/injection, schedule: Q01DX005 (ip), vehicle: saline with Tween-80.
[9] abbreviates: dose: 240.0 mg/kg/injection, schedule: Q01DX005 (ip), vehicle: saline with Tween-80.
The mark [10] stands for this setting: dose: 50.0 mg/kg/injection, schedule: Q01DX009 (ip), vehicle: Klucel (hydroxypropylcellulose) (HPC).
The mark [11] stands for this setting: dose: 100.0 mg/kg/injection, schedule: Q01DX009 (ip), vehicle: Klucel (hydroxypropylcellulose) (HPC).
Setting [12] is: dose: 200.0 mg/kg/injection, schedule: Q01DX009 (ip), vehicle: Klucel (hydroxypropylcellulose) (HPC).
Setting [13] is: dose: 50.0 mg/kg/injection, schedule: Q01DX009 (ip), vehicle: saline with Tween-80.
Setting [14] is: dose: 100.0 mg/kg/injection, schedule: Q01DX009 (ip), vehicle: saline with Tween-80.
Where [15] appears, read: dose: 200.0 mg/kg/injection, schedule: Q01DX009 (ip), vehicle: saline with Tween-80.

Values joined by “and” are separate entries in the source; they are usually repeats but may differ in a detail not shown here. Identical values can stand only once. Inconclusive results and toxic doses are left out.

For `O=[As](O)(O)c1ccc(Nc2nc(Cl)nc(Cl)n2)cc1`, the T/C reads like this: (dose: 12.5 mg/kg/injection, schedule: Q01DX009 (ip), vehicle: Klucel (hydroxypropylcellulose) (HPC)) 96 % of control; (dose: 25.0 mg/kg/injection, schedule: Q01DX009 (ip), vehicle: Klucel (hydroxypropylcellulose) (HPC)) 104 % of control.
As to `CC(=O)OC(OC(C)=O)c1cc(Cl)c(C(OC(C)=O)OC(C)=O)cc1Cl`, the T/C is 107 % of control under setting [1], 106 % of control under setting [2] and 103 % of control under setting [3].
For the compound `CSC(C(OC(C)=O)C(OC(C)=O)C(OC(C)=O)C(COC(C)=O)OC(C)=O)n1cnc2c(=S)nc[nH]c21` (stereo not drawn), the T/C was 101 % of control under setting [4], 92 % of control under setting [5] and 89 % of control under setting [6].
Regarding `CCCCN(CCCC)C(=O)C(C)OC(C)=O` (stereo not drawn), the T/C by setting is: (dose: 25.0 mg/kg/injection, schedule: Q01DX005 (ip), vehicle: saline) 95 % of control; (dose: 50.0 mg/kg/injection, schedule: Q01DX005 (ip), vehicle: saline) 95 % of control; (dose: 100.0 mg/kg/injection, schedule: Q01DX005 (ip), vehicle: saline) 108 % of control; (dose: 200.0 mg/kg/injection, schedule: Q01DX005 (ip), vehicle: saline) 105 % of control.
Turning to `O=Cc1ncccc1[N+](=O)[O-]`, the T/C (dose: 50.0 mg/kg/injection, schedule: Q01DX009 (ip), vehicle: saline + Tween-80 + alcohol) was 116 % of control and the T/C (dose: 100.0 mg/kg/injection, schedule: Q01DX009 (ip), vehicle: saline + Tween-80 + alcohol) is 115 % of control.
`O=C1/C(=C/c2cccc(O)c2)COc2ccccc21`: the T/C is, setting by setting: under setting [7], 95 % of control; under setting [8], 94 % of control; under setting [9], 87 % of control.
In the case of `COc1cc(CC2NCCc3cc(O)ccc32)cc(OC)c1OC` (stereo not drawn), the T/C reads like this: under setting [10], 103 % of control; under setting [11], 99 % of control; under setting [12], 102 % of control.
As to `CC1=C(c2ccccc2)OS(=O)(=O)CC1N(C)C` (stereo not drawn), the T/C is 99 % of control under setting [4], 99 % of control under setting [5] and 98 % of control under setting [6].
In the case of `CSc1nc(NC2OC(COC(C)=O)C(OC(C)=O)C(OC(C)=O)C2OC(C)=O)c(N=C(C)C(C)=O)c(=O)[nH]1` (stereo not drawn), the T/C under setting [7] was 100 % of control, the T/C under setting [8] is 96 % of control and the T/C under setting [9] is 86 % of control.
Regarding `COc1cc(OC)c(OC)cc1/C=C/[N+](=O)[O-]`, the T/C runs as follows: (dose: 100.0 mg/kg/injection, schedule: Q04DX003 (ip), vehicle: Klucel (hydroxypropylcellulose) (HPC)) 102 % of control; (dose: 200.0 mg/kg/injection, schedule: Q04DX003 (ip), vehicle: Klucel (hydroxypropylcellulose) (HPC)) 100 % of control; (dose: 400.0 mg/kg/injection, schedule: Q04DX003 (ip), vehicle: Klucel (hydroxypropylcellulose) (HPC)) 111 % of control.
For `O=C1C(=C2C=CN(CCCN3CCCC3)C=C2)C(=O)c2ccccc21`, the T/C is 90 % of control under setting [10], 96 % of control under setting [11] and 95 % of control under setting [12].
`NS(=O)(=O)c1ccc(NC(=O)c2cccnc2Nc2cccc(Cl)c2)cc1`: the T/C runs as follows: under setting [7], 103 % of control; under setting [8], 102 % of control; under setting [9], 101 % of control.
Consider `CCSc1nc2ccc(NC(=O)CCC(=O)O)cc2s1`, for which the T/C under setting [10] is 103 % of control, the T/C under setting [11] was 102 % of control and the T/C under setting [12] is 101 % of control.
In the case of `N=Nc1c(OC(=O)Nc2cccc(Cl)c2)[nH]c2ccccc12`, the T/C by setting is: under setting [13], 94 % of control; under setting [14], 90 % of control; under setting [15], 93 % of control.
As to `S=C(N/N=C\c1c[nH]c2ccc(Br)cc12)NC12CC3CC(CC(C3)C1)C2`, the T/C is 98 % of control under setting [1], 93 % of control under setting [2] and 98 % of control under setting [3].
For the compound `O=[N+]([O-])c1ccc(/C=C/Br)o1`, the T/C is 88 % of control (dose: 50.0 mg/kg/injection, schedule: Q01DX009 (ip), vehicle: suspension in saline); 95 % of control (dose: 100.0 mg/kg/injection, schedule: Q01DX009 (ip), vehicle: suspension in saline); 103 % of control (dose: 200.0 mg/kg/injection, schedule: Q01DX009 (ip), vehicle: suspension in saline).
As to `O=C1c2ccccc2C(=O)c2c1ccc(C(=O)O)c2-c1ccc2ccccc2c1`, the T/C is, setting by setting: under setting [11], 101 % of control; under setting [12], 116 % of control; (dose: 400.0 mg/kg/injection, schedule: Q01DX009 (ip), vehicle: Klucel (hydroxypropylcellulose) (HPC)) 117 % of control.
On to `CC1([N+](=O)[O-])C(=O)C2(N3CCCCC3)CCCC2C1c1ccccc1` (stereo not drawn), for which the T/C under setting [1] was 99 % of control, the T/C under setting [2] was 96 % of control and the T/C under setting [3] was 97 % of control.
In the case of `Clc1nnc(-c2ccccc2)c(-c2ccccc2)n1`, the T/C (dose: 25.0 mg/kg/injection, schedule: Q01DX009 (ip), vehicle: saline with Tween-80) is 100 % of control; the T/C under setting [13] was 100 % of control; the T/C under setting [14] was 100 % of control.
Take `CCCCN(CCCC)CC(O)c1cccc2cc(Cl)ccc12` (stereo not drawn): the T/C was 104 % of control under setting [4] and 109 % of control under setting [5].
As to `O=[N+]([O-])c1cccc(-c2ccccc2)c1Br`, the T/C by setting is: (dose: 37.5 mg/kg/injection, schedule: Q04DX003 (ip), vehicle: saline with Tween-80) 100 % of control; (dose: 75.0 mg/kg/injection, schedule: Q04DX003 (ip), vehicle: saline with Tween-80) 100 % of control; (dose: 150.0 mg/kg/injection, schedule: Q04DX003 (ip), vehicle: saline with Tween-80) 100 % of control.
Turning to `CC1=CC2N(C=C1)C(c1cccc([N+](=O)[O-])c1)=NON2c1cc(C)ccn1` (stereo not drawn), the T/C by setting is: under setting [4], 91 % of control; under setting [5], 87 % of control and 89 % of control; under setting [6], 87 % of control and 90 % of control.
In the case of `S=C(NC1CCCCC1)NC1CCCCC1`, the T/C is, setting by setting: under setting [14], 90 % of control; (dose: 100.0 mg/kg/injection, schedule: Q04DX003 (ip), vehicle: saline with Tween-80) 95 % of control; under setting [15], 90 % of control; (dose: 200.0 mg/kg/injection, schedule: Q04DX003 (ip), vehicle: saline with Tween-80) 90 % of control; (dose: 400.0 mg/kg/injection, schedule: Q01DX009 (ip), vehicle: saline with Tween-80) 86 % of control; (dose: 400.0 mg/kg/injection, schedule: Q04DX003 (ip), vehicle: saline with Tween-80) 90 % of control.
With `Nc1nc(=O)n(C2OC(CO)C(O)C2O)cc1F` (stereo not drawn), the T/C is 190 % of control (dose: 9.0 mg/kg/injection, schedule: Q01DX009 (ip), vehicle: saline sonified); 154 % of control (dose: 9.0 mg/kg/injection, schedule: Q04DX003 (ip), vehicle: saline sonified); 200 % of control (dose: 18.0 mg/kg/injection, schedule: Q01DX009 (ip), vehicle: saline sonified); 162 % of control (dose: 18.0 mg/kg/injection, schedule: Q04DX003 (ip), vehicle: saline sonified); 181 % of control (dose: 24.0 mg/kg/injection, schedule: Q04DX003 (ip), vehicle: saline with Tween-80); 236 % of control (dose: 36.0 mg/kg/injection, schedule: Q01DX009 (ip), vehicle: saline sonified). Also, the T/C runs as follows: (dose: 36.0 mg/kg/injection, schedule: Q04DX003 (ip), vehicle: saline sonified) 162 % of control; (dose: 36.0 mg/kg/injection, schedule: Q04DX003 (ip), vehicle: saline with Tween-80) 172 % of control; (dose: 54.0 mg/kg/injection, schedule: Q04DX003 (ip), vehicle: saline with Tween-80) 186 % of control.
As for `CCOP(O)(=S)OCC.[Nd]`, the T/C runs as follows: (dose: 100.0 mg/kg/injection, schedule: Q01DX001 (ip), vehicle: Klucel (hydroxypropylcellulose) (HPC)) 89 % of control; (dose: 200.0 mg/kg/injection, schedule: Q01DX001 (ip), vehicle: Klucel (hydroxypropylcellulose) (HPC)) 91 % of control; (dose: 400.0 mg/kg/injection, schedule: Q01DX001 (ip), vehicle: Klucel (hydroxypropylcellulose) (HPC)) 99 % of control.
As to `O=C(/C=C/c1ccc(Cl)cc1)c1ccccc1`, the T/C is 105 % of control under setting [13], 103 % of control under setting [14] and 92 % of control under setting [15].
As for `Cn1c(Cl)cc2nc3ccccc3n2c1=O`, the T/C by setting is: under setting [7], 96 % of control; under setting [8], 94 % of control; under setting [9], 100 % of control.
